Test results taken from US10689327B2, “Prodrug amino acid derivative” (TAISHO PHARMACEUTICALS CO., LTD., priority 2016, dated 2020).
Where a name gives a salt, the structure may show the parent alone.

Assay: Stability test in solution (pH 1.2 and pH 6.5)
Type: physicochemical
Conditions: 1 hour; for Compound's percent residue (%) pH 6.5: 20 mM phosphate buffer pH 6.5, 37° C.; for Compound's percent residue (%) pH 1.2: hydrochloric acid solution pH 1.2, 37° C.
Experimental: Test 2: Stability Test in Solution
A test to determine the stability of Inventive Compounds (I-A) or (I) in a hydrochloric acid solution (pH 1.2) and 20 mM phosphate buffer (pH 6.5) was conducted in accordance with the following method.
A compound was dissolved in a hydrochloric acid solution (pH 1.2) containing hydrochloric acid and sodium chloride or a 20 mM phosphate buffer (pH 6.5) containing disodium hydrogenphosphate, sodium dihydrogenphosphate and sodium chloride to prepare a solution with a concentration of about 50 ng/mL (near the saturated concentration when the compound was not dissolved). The solution was incubated at 37° C. for 1 hour and the compound's concentration before and after the incubation was quantified by high-performance liquid chromatography to calculate the percent residue of the compound. Compounds having low solubility were assessed as being not applicable.
The percent residues of representative compounds in the hydrochloric acid solution (pH 1.2) and the 20 mM phosphate buffer (pH 6.5) are shown in the following Table 2.

| Compound's percent residue (%) pH 6.5 [%] | Compound's percent residue (%) pH 1.2 [%] | SMILES |
| --- | --- | --- |
| 103 | 100 | CCCO[C@@H]1C[C@@H]2[C@H]([C@]1(N)C(=O)OC(C)OC(=O)O[C@H]1C[C@@H](C)CC[C@@H]1C(C)C)[C@@]2(F)C(=O)O (single isomer, unassigned) [Example 15-B] |
| 97 | 104 | CC(OC(=O)O[C@@H]1C[C@@H]2CC[C@@]1(C)C2(C)C)OC(=O)[C@@]1(N)[C@H]2[C@@H](C[C@H]1OCc1ccc(F)cc1)[C@]2(F)C(=O)O (single isomer, unassigned) [Example 17-A] |
| 103 | 107 | CCCO[C@@H]1C[C@@H]2[C@H]([C@]1(N)C(=O)OC(C)OC(=O)O[C@@H]1C[C@@H]3CC[C@@]1(C)C3(C)C)[C@@]2(F)C(=O)O (single isomer, unassigned) [Example 18-A] |
| 106 | 100 | CC(OC(=O)O[C@H]1C[C@H]2CC[C@]1(C)C2(C)C)OC(=O)[C@@]1(N)[C@H]2[C@@H](C[C@H]1OCc1ccc(F)cc1)[C@]2(F)C(=O)O (single isomer, unassigned) [Example 19-B] |
| 103 | 109 | CC(C)[C@@H]1CC[C@@H](C)C[C@H]1OC(=O)O[C@H](C)OC(=O)[C@@]1(N)[C@H]2[C@@H](C[C@H]1OCc1ccc(F)cc1)[C@]2(F)C(=O)O [Example 1, (1R,2R,3R,5R,6R)-2-amino-6-fluoro-3-[(4-fluorophenyl)methoxy]-2-({(1R)-1-[({[(1R,2S,5R)-5-methyl-2-(propan-2-yl)cyclohexyl]oxy}carbonyl)oxy]ethoxy}carbonyl)bicyclo[3.1.0]hexane-6-carboxylic acid] |
| 104 | – | CC(C)[C@@H]1CC[C@@H](C)C[C@H]1OC(=O)O[C@@H](C)OC(=O)[C@@]1(N)[C@H]2[C@@H](C[C@H]1OCc1ccc(F)cc1)[C@]2(F)C(=O)O [Example 2, (1R,2R,3R,5R,6R)-2-Amino-6-fluoro-3-[(4-fluorophenyl)methoxy]-2-({(1S)-1-[({[(1R,2S,5R)-5-methyl-2-(propan-2-yl)cyclohexyl]oxy}carbonyl)oxy]ethoxy}carbonyl)bicyclo[3.1.0]hexane-6-carboxylic acid] |
| – | 93 | C[C@H](OC(=O)C12CC3CC(CC(C3)C1)C2)OC(=O)[C@@]1(N)[C@H]2[C@@H](C[C@H]1OCc1ccc(F)cc1)[C@]2(F)C(=O)O [Example 3, (1R,2R,3R,5R,6R)-2-Amino-6-fluoro-3-[(4-fluorophenyl)methoxy]-2-({(1R)-1-[(tricyclo[3.3.1.1^3,7]decane-1-carbonyl)oxy]ethoxy}carbonyl)bicyclo[3.1.0]hexane-6-carboxylic acid] |
| 98 | 98 | C[C@@H](OC(=O)C12CC3CC(CC(C3)C1)C2)OC(=O)[C@@]1(N)[C@H]2[C@@H](C[C@H]1OCc1ccc(F)cc1)[C@]2(F)C(=O)O [Example 4, (1R,2R,3R,5R,6R)-2-Amino-6-fluoro-3-[(4-fluorophenyl)methoxy]-2-({(1S)-1-[(tricyclo[3.3.1.1^3,7]decane-1-carbonyl)oxy]ethoxy}carbonyl)bicyclo[3.1.0]hexane-6-carboxylic acid] |
| 98 | 100 | CC(OC(=O)OC1CCCCC1)OC(=O)[C@@]1(N)[C@H]2[C@@H](C[C@H]1OCc1ccc(F)cc1)[C@]2(F)C(=O)O (stereo partly drawn) [Example 5, (1R,2R,3R,5R,6R)-2-Amino-2-[(1-{[(cyclohexyloxy)carbonyl]oxy}ethoxy)carbonyl]-6-fluoro-3-[(4-fluorophenyl)methoxy]bicyclo[3.1.0]hexane-6-carboxylic acid] |
| 11 | 99 | CC(C)[C@H](N)C(=O)OCOC(=O)[C@@]1(N)[C@H]2[C@@H](C[C@H]1OCc1ccc(F)cc1)[C@]2(F)C(=O)O [Example 6, (1R,2R,3R,5R,6R)-2-Amino-6-fluoro-3-[(4-fluorophenyl)methoxy]-2-{[(L-valyloxy)methoxy]carbonyl}bicyclo[3.1.0]hexane-6-carboxylic acid dihydrochloride] |
| 106 | 101 | N[C@]1(C(=O)OCOC(=O)C23CC4CC(CC(C4)C2)C3)[C@H]2[C@@H](C[C@H]1OCc1ccc(F)cc1)[C@]2(F)C(=O)O [Example 7, (1R,2R,3R,5R,6R)-2-Amino-6-fluoro-3-[(4-fluorophenyl)methoxy]-2-({[(tricyclo[3.3.1.1^3,7]decane-1-carbonyl)oxy]methoxy}carbonyl)bicyclo[3.1.0]hexane-6-carboxylic acid] |
| – | 97 | CC(C)[C@@H]1CC[C@@H](C)C[C@H]1OC(=O)O[C@H](C)OC(=O)[C@@]1(N)[C@H]2[C@@H](C[C@H]1OCc1ccc(F)c(F)c1)[C@]2(F)C(=O)O [Example 8, (1R,2R,3R,5R,6R)-2-amino-3-[(3,4-difluorophenyl)methoxy]-6-fluoro-2-({(1R)-1-[({[(1R,2S,5R)-5-methyl-2-(propan-2-yl)cyclohexyl]oxy}carbonyl)oxy]ethoxy}carbonyl)bicyclo[3.1.0]hexane-6-carboxylic acid] |
| 116 | 115 | CC(C)[C@@H]1CC[C@@H](C)C[C@H]1OC(=O)O[C@@H](C)OC(=O)[C@@]1(N)[C@H]2[C@@H](C[C@H]1OCc1ccc(F)c(F)c1)[C@]2(F)C(=O)O [Example 9, (1R,2R,3R,5R,6R)-2-Amino-3-[(3,4-difluorophenyl)methoxy]-6-fluoro-2-({(1S)-1-[({[(1R,2S,5R)-5-methyl-2-(propan-2-yl)cyclohexyl]oxy}carbonyl)oxy]ethoxy}carbonyl)bicyclo[3.1.0]hexane-6-carboxylic acid] |
| 107 | 104 | C[C@H](OC(=O)C12CC3CC(CC(C3)C1)C2)OC(=O)[C@@]1(N)[C@H]2[C@@H](C[C@H]1OCc1ccc(F)c(F)c1)[C@]2(F)C(=O)O [Example 10, (1R,2R,3R,5R,6R)-2-Amino-3-[(3,4-difluorophenyl)methoxy]-6-fluoro-2-({(1R)-1-[(tricyclo[3.3.1.1^3,7]decane-1-carbonyl)oxy]ethoxy}carbonyl)bicyclo[3.1.0]hexane-6-carboxylic acid] |
| 95 | 96 | C[C@@H](OC(=O)C12CC3CC(CC(C3)C1)C2)OC(=O)[C@@]1(N)[C@H]2[C@@H](C[C@H]1OCc1ccc(F)c(F)c1)[C@]2(F)C(=O)O [Example 11, (1R,2R,3R,5R,6R)-2-Amino-3-[(3,4-difluorophenyl)methoxy]-6-fluoro-2-({(1S)-1-[(tricyclo[3.3.1.1^3,7]decane-1-carbonyl)oxy]ethoxy}carbonyl)bicyclo[3.1.0]hexane-6-carboxylic acid] |
| 102 | 101 | N[C@]1(C(=O)OCOC(=O)C23CC4CC(CC(C4)C2)C3)[C@H]2[C@@H](C[C@H]1OCc1ccc(F)c(F)c1)[C@]2(F)C(=O)O [Example 12, (1R,2R,3R,5R,6R)-2-Amino-3-[(3,4-difluorophenyl)methoxy]-6-fluoro-2-({[(tricyclo[3.3.1.1^3,7]decane-1-carbonyl)oxy]methoxy}carbonyl)bicyclo[3.1.0]hexane-6-carboxylic acid] |
| 98 | 98 | CCCO[C@@H]1C[C@@H]2[C@H]([C@]1(N)C(=O)O[C@@H](C)OC(=O)O[C@@H]1C[C@H](C)CC[C@H]1C(C)C)[C@@]2(F)C(=O)O [Example 13, (1R,2R,3R,5R,6R)-2-amino-6-fluoro-2-({(1R)-1-[({[(1R,2S,5R)-5-methyl-2-(propan-2-yl)cyclohexyl]oxy}carbonyl)oxy]ethoxy}carbonyl)-3-propoxybicyclo[3.1.0]hexane-6-carboxylic acid] |
| 97 | 97 | CCCO[C@@H]1C[C@@H]2[C@H]([C@]1(N)C(=O)O[C@H](C)OC(=O)O[C@@H]1C[C@H](C)CC[C@H]1C(C)C)[C@@]2(F)C(=O)O [Example 14, (1R,2R,3R,5R,6R)-2-Amino-6-fluoro-2-({(1S)-1-[({[(1R,2S,5R)-5-methyl-2-(propan-2-yl)cyclohexyl]oxy}carbonyl)oxy]ethoxy}carbonyl)-3-propoxybicyclo[3.1.0]hexane-6-carboxylic acid] |
| 104 | 104 | CCCO[C@@H]1C[C@@H]2[C@H]([C@]1(N)C(=O)OC(C)OC(=O)O[C@H]1C[C@@H](C)CC[C@@H]1C(C)C)[C@@]2(F)C(=O)O (stereo partly drawn) [Example 15-A, (1R,2R,3R,5R,6R)-2-Amino-6-fluoro-2-({1-[({[(1S,2R,5S)-5-methyl-2-(propan-2-yl)cyclohexyl]oxy}carbonyl)oxy]ethoxy}carbonyl)-3-propoxybicyclo[3.1.0]hexane-6-carboxylic acid] |
| 93 | 101 | CC(OC(=O)O[C@H]1C[C@@H](C)CC[C@@H]1C(C)C)OC(=O)[C@@]1(N)[C@H]2[C@@H](C[C@H]1OCc1ccc(F)cc1)[C@]2(F)C(=O)O (stereo partly drawn) [Example 16-B, (1R,2R,3R,5R,6R)-2-Amino-6-fluoro-3-[(4-fluorophenyl)methoxy]-2-({1-[({[(1S,2R,5S)-5-methyl-2-(propan-2-yl)cyclohexyl]oxy}carbonyl)oxy]ethoxy}carbonyl)bicyclo[3.1.0]hexane-6-carboxylic acid] |
